Results on 3 molecules are retold here after ChEMBL document CHEMBL1140459, “Synthesis of poison-frog alkaloids 233A, 235U, and 251AA and their inhibitory effects on neuronal nicotinic acetylcholine receptors” (Bioorg Med Chem Lett, 2007).

Experiment [1] deals with Neuronal acetylcholine receptor subunit alpha-7 (Homo sapiens, UniProt P36544). Nature of the experiment: Inhibition of alpha-7 nAchR expressed in Xenopus laevis oocytes assessed as acetylcholine-induced current by voltage-clamp method. It is filed as functional, cell-based, Oocyte.
Sequence of Neuronal acetylcholine receptor subunit alpha-7 (P36544 whole entry): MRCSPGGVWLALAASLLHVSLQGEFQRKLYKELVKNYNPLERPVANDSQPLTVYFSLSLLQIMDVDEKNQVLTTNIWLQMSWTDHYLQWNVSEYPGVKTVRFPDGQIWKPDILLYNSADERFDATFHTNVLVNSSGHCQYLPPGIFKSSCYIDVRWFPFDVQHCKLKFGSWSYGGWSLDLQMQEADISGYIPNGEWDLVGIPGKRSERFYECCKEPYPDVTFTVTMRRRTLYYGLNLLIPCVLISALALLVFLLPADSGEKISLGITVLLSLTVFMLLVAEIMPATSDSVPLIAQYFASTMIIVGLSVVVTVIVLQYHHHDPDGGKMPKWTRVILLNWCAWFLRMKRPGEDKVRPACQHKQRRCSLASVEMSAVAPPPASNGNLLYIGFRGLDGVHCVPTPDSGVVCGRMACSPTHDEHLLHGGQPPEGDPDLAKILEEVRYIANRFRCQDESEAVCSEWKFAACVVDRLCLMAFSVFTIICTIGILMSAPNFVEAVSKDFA
The target of experiment [2] is Neuronal acetylcholine receptor; alpha4/beta2 (Homo sapiens, UniProt P17787+P43681). Nature of the experiment: Inhibition of alpha4beta2 nAchR expressed in Xenopus laevis oocytes assessed as acetylcholine-induced current by voltage-clamp method. Format: cell-based, Oocyte.
Sequence of Neuronal acetylcholine receptor; alpha4/beta2 (P17787 whole entry): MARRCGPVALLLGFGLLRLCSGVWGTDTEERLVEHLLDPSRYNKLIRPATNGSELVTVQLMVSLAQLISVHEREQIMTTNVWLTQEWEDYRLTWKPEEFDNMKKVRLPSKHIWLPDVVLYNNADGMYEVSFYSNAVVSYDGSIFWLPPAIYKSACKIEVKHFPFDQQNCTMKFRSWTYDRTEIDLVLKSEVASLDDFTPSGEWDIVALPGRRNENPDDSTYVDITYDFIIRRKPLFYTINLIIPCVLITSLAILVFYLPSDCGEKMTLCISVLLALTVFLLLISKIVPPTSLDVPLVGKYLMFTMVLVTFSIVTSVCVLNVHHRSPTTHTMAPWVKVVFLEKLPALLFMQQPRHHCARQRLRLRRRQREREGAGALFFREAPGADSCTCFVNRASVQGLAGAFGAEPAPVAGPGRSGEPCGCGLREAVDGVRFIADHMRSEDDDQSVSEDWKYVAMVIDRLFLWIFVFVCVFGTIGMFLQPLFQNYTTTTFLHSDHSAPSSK
Sequence of Neuronal acetylcholine receptor; alpha4/beta2 (P43681 whole entry): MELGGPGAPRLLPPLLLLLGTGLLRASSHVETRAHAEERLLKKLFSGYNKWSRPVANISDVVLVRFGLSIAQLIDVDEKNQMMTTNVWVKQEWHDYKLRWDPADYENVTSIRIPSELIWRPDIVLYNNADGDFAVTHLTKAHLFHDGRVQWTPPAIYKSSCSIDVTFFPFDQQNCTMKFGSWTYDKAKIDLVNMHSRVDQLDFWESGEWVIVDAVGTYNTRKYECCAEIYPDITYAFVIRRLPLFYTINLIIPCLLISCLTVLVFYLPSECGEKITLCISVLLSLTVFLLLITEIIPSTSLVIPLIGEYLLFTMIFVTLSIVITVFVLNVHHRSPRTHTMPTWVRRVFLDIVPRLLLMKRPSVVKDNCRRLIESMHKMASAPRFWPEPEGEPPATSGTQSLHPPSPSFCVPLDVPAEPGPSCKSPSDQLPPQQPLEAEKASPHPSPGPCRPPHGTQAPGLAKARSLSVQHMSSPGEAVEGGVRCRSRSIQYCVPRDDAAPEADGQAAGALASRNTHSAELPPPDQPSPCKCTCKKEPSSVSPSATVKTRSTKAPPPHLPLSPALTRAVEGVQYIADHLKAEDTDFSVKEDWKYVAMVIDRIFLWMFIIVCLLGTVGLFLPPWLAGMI

pIC50: −log10 of the molar value.

Broadly, the pIC50 is the negative decadic logarithm of the IC50, by convention in mol/L. Turning to `C=CCCC[C@@H]1CC[C@@H](CC)[C@@H]2CCCCN12`, the values for the pIC50 in experiment [1] and in experiment [2] were 5.28 and 5.46, respectively.

As for `C#CCCC[C@@H]1CC[C@@H](CC)[C@@H]2CCCCN12`, the pIC50 in experiment [1] was 5.13; in experiment [2] it was 5.29.

With `CCCCCC[C@@H]1CC[C@@H](CC)[C@@H]2CCCCN12`, the negative-log IC50 (pIC50) was 5.39 in experiment [1] and 5.60 in experiment [2].
